This test deals with Trypanosoma cruzi. Kind of test: Inhibitory dose for selectivity against Trypanosoma cruzi. It counts as functional. The conditions noted are these: read-out: ID50 (the source's name).
For `N=C(N)N/N=C/c1ccc(Cl)cc1`, the IC50 is 27.4 µM.
On to `N=C(N)N/N=C/c1cc2c(cc1Br)OCO2`, for which the IC50 was found to be 23.7 µM.
For `N=C(N)N/N=C/c1ccccc1` the value was 205 µM.
To `N=C(N)N/N=C/c1ccc2c(c1)OCO2` belongs 274 µM; to `N=C(N)N/N=C/c1cccc([N+](=O)[O-])c1O`, 877 µM; to `COc1cc(/C=N/NC(=N)N)ccc1O`, 4800 µM.
For `COc1cccc(/C=N/NC(=N)N)c1OC` the value was 22.5 µM.

The record behind these values is ChEMBL document CHEMBL1130476, “Molecular modeling of the interaction of trypanocide guanyl hydrazones with B-DNA” (1997).
